From the supplement of paper PMC10011410
± gives the standard deviation of the averaged measurements.

How the values were obtained:
U-2 OS [1] = assay: cell painting activity score (Mahalanobis distance from DMSO wells); higher = stronger morphological phenotype; settings: 24 h
In short: (§1)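 U-2 OS cells were seeded at about 1,500 per well in 384-well plates and treated by pin tool for 24 h at 37 °C, usually at six 2-fold concentrations from 20 μM to 625 nM. After staining with MitoTracker, concanavalin A, phalloidin, wheat germ agglutinin, Hoechst and SYTO 14, plates were imaged on an Opera Phenix and features were extracted with CellProfiler and normalized to DMSO cells on the same plate. The activity score is the Mahalanobis distance from DMSO wells, and cell count is given relative to DMSO wells. Each value is the mean of four replicate plates.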

U-2 OS [2] = assay: total intracellular glutathione (GSH + GSSG) relative to DMSO (% of control); higher = more glutathione; settings: 24 h
Protocol: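 Total intracellular glutathione (GSH + GSSG) in U-2 OS cells by GSH/GSSG-Glo after 24 h compound treatment at 5, 10 and 20 uM (some at 40 and 80 uM), as percent of DMSO control. Five technical replicate plates, averaged.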

U-2 OS [3] = assay: intracellular GSH:GSSG ratio (calculated); higher = more reduced glutathione pool; settings: 24 h
Protocol: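 Intracellular glutathione in U-2 OS cells after 24 h compound treatment at 5, 10 and 20 uM (some at 40 and 80 uM). Total glutathione and GSSG were measured with the GSH/GSSG-Glo kit, and the GSH:GSSG ratio was calculated. Mean of five technical replicate plates.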

U-2 OS [4] = assay: AUC of culture confluence over time (live-cell imaging) (AUC (confluence % x time)); higher = more confluent culture (less growth inhibition)
In short: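 Reported values are areas under curves of confluence against time, recorded by live-cell imaging of U-2 OS cells. Cells in F-12K medium with 10% FBS, seeded at 750 per well in 384-well plates, were treated by pin tool 24 h later, most compounds at 20, 10 and 5 μM with 0.2% DMSO. Imaging at 37 °C took place every 4 h for up to 60 h.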

U-2 OS [5] = assay: relative cell count vs DMSO (cell painting) (fraction of DMSO control); higher = more cells remaining (less cytotoxic); settings: 24 h
In short: as §1

U-2 OS [6] = assay: cell viability (CellTiter-Glo) relative to DMSO (% of control); higher = more viable; settings: 24 h
Protocol: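 Cell viability of U-2 OS cells by CellTiter-Glo after 24 h compound treatment at 5, 10 and 20 uM (some at 40 and 80 uM), measured in parallel with the glutathione assay, as percent of DMSO control. Five technical replicate plates, averaged.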

SMILES | cell painting activity score (U-2 OS [1]; 0.625 µM) | cell painting activity score (U-2 OS [1]; 1.25 µM) | cell painting activity score (U-2 OS [1]; 2.5 µM) | cell painting activity score (U-2 OS [1]; 5 µM) | cell painting activity score (U-2 OS [1]; 10 µM) | cell painting activity score (U-2 OS [1]; 20 µM) | total intracellular glutathione (U-2 OS [2]; 5 µM) | total intracellular glutathione (U-2 OS [2]; 10 µM) | total intracellular glutathione (U-2 OS [2]; 20 µM) | intracellular GSH:GSSG ratio (U-2 OS [3]; 5 µM) | intracellular GSH:GSSG ratio (U-2 OS [3]; 10 µM) | intracellular GSH:GSSG ratio (U-2 OS [3]; 20 µM) | AUC of culture confluence over time (U-2 OS [4]; 5 µM) | AUC of culture confluence over time (U-2 OS [4]; 10 µM) | AUC of culture confluence over time (U-2 OS [4]; 20 µM) | relative cell count (U-2 OS [5]; 0.625 µM) | relative cell count (U-2 OS [5]; 1.25 µM) | relative cell count (U-2 OS [5]; 2.5 µM) | relative cell count (U-2 OS [5]; 5 µM) | relative cell count (U-2 OS [5]; 10 µM) | relative cell count (U-2 OS [5]; 20 µM) | cell viability (U-2 OS [6]; 5 µM) | cell viability (U-2 OS [6]; 10 µM) | cell viability (U-2 OS [6]; 20 µM) | total intracellular glutathione (U-2 OS [2]; 40 µM) | total intracellular glutathione (U-2 OS [2]; 80 µM) | intracellular GSH:GSSG ratio (U-2 OS [3]; 40 µM) | intracellular GSH:GSSG ratio (U-2 OS [3]; 80 µM) | cell viability (U-2 OS [6]; 40 µM) | cell viability (U-2 OS [6]; 80 µM) | cell painting activity score (U-2 OS [1]; 40 µM) | cell painting activity score (U-2 OS [1]; 80 µM) | AUC of culture confluence over time (U-2 OS [4]; 40 µM) | AUC of culture confluence over time (U-2 OS [4]; 80 µM) | relative cell count (U-2 OS [5]; 40 µM) | relative cell count (U-2 OS [5]; 80 µM)
CC(C)C[C@H](NC(=O)[C@H](Cc1ccccc1)NC(=O)c1cnccn1)B(O)O | 28.4 | 29.8 | 29.3 | 30.7 | 31 | 29.8 | 6.2 ± 0.76 | 6.01 ± 0.4 | 6.63 ± 0.68 | 2.45 | 1.97 | 1.1 | 16.9 | 15.6 | 15.1 | 0.186 | 0.172 | 0.149 | 0.129 | 0.131 | 0.125 | 6.79 ± 0.82 | 7.67 ± 1.1 | 7.65 ± 1 |  |  |  |  |  |  |  |  |  |  |  | 
O=C1/C(=C/c2ccc(O)c(Br)c2)CCC/C1=C\c1ccc(O)c(Br)c1 | 4.8 | 5.76 | 5.97 | 8.32 | 9.31 | 12.2 | 113 ± 2.6 | 126 ± 4.8 | 120 ± 2.2 | 15.5 | 14 | 11.9 | 49.5 |  |  | 1.01 | 1.02 | 0.982 | 0.904 | 0.96 | 0.55 | 100 ± 4.4 | 95.1 ± 4.6 | 94.1 ± 5.6 | 119 ± 3.6 | 13.4 ± 2.5 | 9.48 | 3.73 | 88.5 ± 5.9 | 11.9 ± 2.3 |  |  |  |  |  | 
CC1(C)CC[C@]2(C(=O)n3ccnc3)CC[C@]3(C)[C@H](C(=O)C=C4[C@@]5(C)C=C(C#N)C(=O)C(C)(C)[C@@H]5CC[C@]43C)[C@@H]2C1 | 17.6 | 23.5 | 35.7 | 33.9 | 32 | 26.6 | 36.9 ± 4.2 | 38 ± 6.2 | 38.6 ± 5.8 | 3.45 | 4.45 | 0.635 | 16 | 14.8 | 13.9 | 0.329 | 0.22 | 0.121 | 0.0924 | 0.0552 | 0.0644 | 43.9 ± 1.6 | 43.8 ± 5.2 | 94.4 ± 8.6 |  |  |  |  |  |  |  |  |  |  |  | 
C=CC(=O)Nc1cccc(Oc2nc(Nc3ccc(N4CCN(C)CC4)cc3OC)ncc2Cl)c1 | 5.47 | 8.25 | 10.7 | 9.73 | 12.1 | 14.9 | 110 ± 7.6 | 102 ± 5.2 | 108 ± 2 | 24.9 |  |  | 42.4 | 21.9 | 5.33 | 1.09 | 1 | 0.976 | 0.957 | 0.914 | 0.342 | 87.2 ± 3.6 | 76 ± 1.4 | 39.8 ± 1.5 |  |  |  |  |  |  |  |  |  |  |  | 
O=C(/C(C(N1CC2=CC=CC=C2)=O)=C/C3=C(C)C=C(O)C=C3C)N(CC4=CC=CC=C4)C1=O | 3.82 | 5.14 | 5.14 | 4.49 | 9.6 | 10.8 | 99.8 ± 4.9 | 98.5 ± 2.1 | 104 ± 5.8 | 21.3 | 22.8 | 29.1 | 50.9 | 49.8 | 46.2 | 0.901 | 0.839 | 0.861 | 0.841 | 0.776 | 0.292 | 97 ± 6.9 | 98.1 ± 2.9 | 102 ± 6.1 | 77.3 ± 11 | 27.7 ± 8 | 19.1 | 12.4 | 70 ± 23 | 14.7 ± 7.9 | 8.64 | 16.5 | 34.6 | 12.1 | 0.419 | 0.0657
CC(=O)c1c(O)c(C)c(O)c(Cc2c(O)c3c(c(C(=O)C=Cc4ccccc4)c2O)OC(C)(C)C=C3)c1O | 4.78 | 3.41 | 4.37 | 3.79 | 6.83 | 11.2 | 95.7 ± 2.9 | 91.7 ± 4.9 | 89.9 ± 4.4 | 25.1 | 24.3 | 26.6 | 39.9 | 35.4 | 29 | 1.07 | 1.12 | 1.14 | 1.14 | 1.11 | 1.07 | 98.4 ± 1.9 | 93.9 ± 3.6 | 91.9 ± 4.7 | 83.2 ± 1.9 | 84.2 ± 4.5 | 26.7 | 15 | 89 ± 4.1 | 78.4 ± 1.5 | 13.1 | 12.8 | 22.2 | 18.2 | 0.889 | 0.727
COc1cc2ncnc(Nc3ccc(F)c(Cl)c3)c2cc1NC(=O)/C=C/CN1CCCCC1 | 10.6 | 10.4 | 11.7 | 13.9 | 18.6 | 22.1 | 81.2 ± 4.8 | 59.3 ± 3.2 | 18.3 ± 12 | 10.8 | 7.42 | 1.96 | 26.9 | 14.6 | 13.7 | 0.624 | 0.681 | 0.586 | 0.503 | 0.331 | 0.035 | 74.4 ± 5 | 59.5 ± 2.5 | 22.4 ± 5.3 |  |  |  |  |  |  |  |  |  |  |  | 
